{
  "source": "patent US20060014641A1",
  "about": "(priority 2004, published 2006)",
  "key": {"boll weevil larvae [1]": {"test_system": "boll weevil larvae", "assay": "Boll weevil larvae bioassay (agar liquid diet)", "conditions": "in vivo", "experimental": "Boll Weevil Larvae Bioassay\nAssays for activity against boll weevil larvae are carried out by incorporating the test sample into a agar liquid diet similar to that for southern corn rootworm [Marrone P. G., Ferri F. D., Mosley T. R., Meinke L. J., “Improvements in laboratory rearing of the southern corn rootworm, Diabrotica undecimpunctata howardi Barber (Coleoptera: Chrysomelidae) on artificial diet and corn,” Journal of Economic Entomology, 78:290-3, 1985]. The test sample is substituted for the 20% water component. Neonate larvae are allowed to feed on the diet and mortality and growth stunting are evaluated."}, "Lepidopteran larvae": {"test_system": "Lepidopteran larvae", "assay": "Lepidopteran larvae bioassay (artificial diet)", "design": "species or system lepidopteran insects", "conditions": "in vivo", "experimental": "Lepidopteran Larvae Bioassay\nLepidopteran larvae are tested on artificial diet treated with various amounts of oxalate for a number of days."}, "adult boll weevils": {"test_system": "adult boll weevils", "assay": "Boll weevil reproduction test", "type": "in vivo", "conditions": "oxalate in standard diet", "experimental": "Preoviposition: Approximately 220 adult boll weevils, collected within 2 days of emergence, are divided into two groups. […] The adults are allowed to feed and mate for four days at which time mortality is determined. Oviposition study: These two groups of adults are then divided into two subgroups and individually placed on artificial, oxalate-containing or control bolls. […] After three days at 27% C, the adults are removed and ten bolls from each of the four groups are removed and examined for eggs. The remaining bolls are incubated for an additional 7 days at 27% C to allow development of larvae. The bolls are then dissected and the eggs and larvae, dead and surviving, are counted. • Group 1=Control Adults placed on control bolls • Group 2=Control Adults placed on treated bolls • Group 3=oxalate-fed adults placed on control bolls • Group 4=oxalate-fed adults placed on treated bolls Mode of Action Studies"}, "boll weevil larvae [2]": {"test_system": "boll weevil larvae", "assay": "Cotton seed diet assay", "type": "in vivo", "conditions": "cottonseed flour diets, after six days, in the presence of cotton plant components", "experimental": "Two treatment diets are made by mixing 30 g of one of two types of cottonseed flour into 170 mL of a 1.6% agar solution at 50% C, containing 0.13% propionic acid, 0.014% phosphoric acid, and 30 mg each of streptomycin sulfate and chlortetracycline. Before mixing, 10% KOH was used to adjust the pH to 6.2. One test diet utilized raw cottonseed flour (Sigma) as the nutrient source; the other utilized Pharmamedia.™. (Traders Protein), a flour made up of cottonseed embryos. The diets were incubated in a water bath at 40% C. Dilutions of the oxalate are incorporated into the diets as described above. Boll weevil larvae are allowed to feed and mortality rates are determined after six days."}, "boll weevil larvae [3]": {"test_system": "boll weevil larvae", "assay": "Homogenized cotton leaf tissue assay", "type": "in vivo", "conditions": "cotton leaf tissue agar diet, evaluated six days later", "experimental": "Homogenized Cotton Leaf Tissue Assay In order to test oxalate against boll weevil larvae in a host tissue diet environment, a study is conducted in which cotton leaf tissue is the only nutritional component of an agar-based diet. Two cotton leaves (each approx. 5 inches wide) with stems are homogenized at 50% C into 170 mL of a 1.6% agar solution containing 0.13% propionic acid, 0.014% phosphoric acid, and 30 mg each of streptomycin sulfate and chlortetracycline. Before addition of the leaves, 10% KOH is used to adjust the pH of the agar solution to 6.2. The leaf “diet” is allowed to cool to 40% C. Dilutions of oxalate and a water control are incorporated into the leaf “diet”, poured into insect diet trays and allowed to cool. Boll weevil eggs are added to the diet wells. The assay is evaluated six days later. […] This will illustrate that the oxalate is insecticidal in the presence of intact cotton tissue and cells."}},
  "data": [
    {"smiles": "O=C(O)C(=O)O", "note": "[Oxalate, oxalic acid]", "values": [
      {"measurement": "effect on boll weevil larvae", "setting": "boll weevil larvae [1]", "value": "lethal"},
      {"measurement": "mortality and stunting of larvae of lepidopteran insects", "setting": "Lepidopteran larvae", "value": "mortality and stunting"},
      {"measurement": "effect on reproductive cycle of adult boll weevils", "setting": "adult boll weevils", "value": "affect the reproductive cycle"},
      {"measurement": "effect on reproductive cycle of adult boll weevils", "setting": "adult boll weevils; listed as Oxlate", "value": "interrupt the reproductive cycle"},
      {"measurement": "mortality of boll weevil larvae", "setting": "boll weevil larvae [2]", "value": "lethal"},
      {"measurement": "insecticidal activity in the presence of cotton leaf tissue", "setting": "boll weevil larvae [3]", "value": "maintains its insecticidal activity"}
    ]}
  ]
}
